Results taken from patent US20240277810A1, “INTERFERONS AND NUCLEAR EXPORT INHIBITORS FOR USE IN METHODS OF TREATING CANCER” (St. Jude Children's Research Hospital, Inc., priority 2021, published 2024).
“Also recorded” adds a separate entry of the source.

B1: IFN-β: type I interferon (PBL Assay), 50 ng/mL in cells, 1 μg per mouse (protein, listed as Homo sapiens)
chain: MTNKCLLQIALLLCFSTTALSMSYNLLGFLQRSSNFQCQKLLWQLNGRLEYCLKDRMNFDIPEEIKQLQQFQKEDAALTIYEMLQNIFAIFRQDSSSTGWNETIVENLLANVYHQINHLKTVLEEKLEKEDFTRGKLMSSLHLKRYYGRILHYLKAKEYSHCAWTIVRVEILRNFYFINRLTGYLRN

Key:
[1] = tested on: bone marrow-derived macrophages (BMDMs); assay: Cell death in BMDMs quantified by propidium iodide staining (real-time imaging); format: cell-based, mouse; conditions: for cell death compared with wild-type cells: Adar1−/− BMDMs; for cell death (PI staining): wild-type BMDMs, 24 hours, 5 μM KPT-330 or 5 ng/ml leptomycin B, with or without 50 ng/mL IFN-β or IFN-γ
Procedure: (§1) Cell Culture. Primary mouse bone marrow-derived macrophages (BMDMs) were generated from the bone marrow of wild-type and the indicated mutant mice. Cells were grown for 5-6 days in Iscove's Modified Dulbecco's Media (IMDM, Thermo Fisher Scientific) supplemented with 1% non-essential amino acids (Thermo Fisher Scientific), 10% fetal bovine serum (FBS, Biowest), 30% L929-conditioned media, and 1% penicillin and streptomycin (Thermo Fisher Scientific). BMDMs were then seeded into antibiotic-free media at a concentration of 1×10^6 cells into 12-well plates and incubated overnight.
(§2) Cell Stimulation. BMDMs were treated with 5 μM of KPT-330 (Selleckchem) or 5 ng/ml of leptomycin B (Sigma) in the presence and absence of 50 ng/mL of IFN-γ (Peprotech) or 50 ng/mL of IFN-β (PBL Assay) for 12 or 24 hours, as indicated.
Real-time Imaging for Cell Death. The kinetics of cell death were determined using the INCUCYTE® S3 (Essen BioScience) live-cell analysis system. BMDMs (5×10^5 cells/well) were seeded in 24-well tissue culture plates. Cells were treated with the indicated stimuli and stained with propidium iodide (PI; Life Technologies) following the manufacturer's protocol. The plate was scanned, and fluorescent and phase-contrast images (4 image fields/well) were acquired in real-time every 1 hour from 0 to 24 hours post-treatment. PI-positive dead cells are marked with a red mask for visualization. The image analysis, masking, and quantification of dead cells were done using the software package supplied with the INCUCYTE® imager.

BMDMs = assay: Immunoblot analysis of pyroptosis, apoptosis and necroptosis (PANoptosis) molecules in BMDMs; format: cell-based, mouse; conditions: for cleavage of caspase-1 and activation of GSDME, caspase-8, -3, -7 and MLKL: Adar1−/− BMDMs, NEI alone
Procedure: as §1, §2
Immunoblot Analysis. Cell lysates and culture supernatants were combined in caspase lysis buffer (containing 1× protease inhibitors (Roche), 1× phosphatase inhibitors (Roche), 10% NP-40, and 25 mM DTT) and 4× sample loading buffer (containing SDS and 2-mercaptoethanol) for immunoblot analysis of caspases. For immunoblot analysis of signaling components, supernatants were removed, and cells were washed once with Dulbecco's phosphate-buffered saline (DPBS, Thermo Fisher Scientific), followed by lysis in radioimmunoprecipitation assay (RIPA) buffer and sample loading buffer. Proteins were separated by electrophoresis through 8-12% polyacrylamide gels. Following electrophoretic transfer of proteins onto polyvinylidene fluoride (PVDF) membranes (Millipore), nonspecific binding was blocked by incubation with 5% skim milk, then membranes were incubated with primary antibodies against: caspase-3 (Cell Signaling Technology (CST), 1:1000), cleaved caspase-3 (CST, 1:1000), caspase-7 (CST, 1:1000), cleaved caspase-7 (CST, 1:1000), caspase-8 (AdipoGen, 1:1000), cleaved caspase-8 CST, 1:1000), caspase-11 (Novus Biologicals, 1:1000), caspase-1 (AdipoGen, 1:1000), GAPDH (CST, 1:1000), ZBP1 (AdipoGen, 1:1000), pMLKL (CST, 1:1000), tMLKL (Abgent, 1:1000), ADAR1 (Santa Cruz Biotechnology, 1:500), tRIPK1 (CST, 1:1000), GSDMD (Abcam, 1:1000), GSDME (Abcam, 1:1000), RIPK3 (CST, 1:1000), pSTAT1 (CST, 1:1000), tSTAT (CST, 1:1000), pIRF3 (CST, 1:1000), HA (Millipore, 1:1000), β-actin (Proteintech, 1:1000). Membranes were then washed and incubated with the appropriate horseradish peroxidase (HRP)-conjugated secondary antibodies (Jackson ImmunoResearch Laboratories; anti-rabbit, 1:5000; anti-mouse 1:5000; and anti-rat, 1:5000). Proteins were visualized using Immobilon Forte Western HRP Substrate (Millipore).

endogenous dsRNA = assay: dsRNA by J2 antibody dot-blot analysis and immunofluorescence in BMDMs; format: cell-based, mouse; conditions: for amount of dsRNA: Adar1−/− BMDMs; for amount of dsRNA compared with media-treated cells: wild-type BMDMs
Procedure: Dot Blot Analysis. For dsRNA analysis, total RNA was isolated from the cells. Equal volumes (2 μl containing 1 μg of RNA) of the RNA were dotted on HYBONDO N+ membrane (GE Healthcare), dried and auto crosslinked in a UV Stratalinker 2400 (Stratagene) two times. The membrane was then blocked in 5% milk in TBST for 1 hour and probed with J2 antibody (1:1000, Scicons) at 4° C. overnight. On the next day, the membrane was washed with TBST 3 times and probed with secondary goat-anti-mouse HRP antibody in 5% milk at room temperature for 1 hour. The total […] was detected using methylene blue.
Immunofluorescence Staining. BMDMs were washed with phosphate-buffered saline (PBS) and fixed in 4% paraformaldehyde for 15 minutes at room temperature, followed by permeabilization for 10 minutes in 0.5% TRITON® X-100 (2-[4-(2,4,4-trimethylpentan-2-yl)phenoxy]ethanol). Cells were blocked in 5% normal goat serum (Life Technologies) for 1 hour at room temperature. Samples were incubated with anti-ZBP1 antibody (1:250 dilution, Adipogen) or anti-J2 antibody (1:100, Millipore) overnight at 4° C. Cells were then washed three times with PBS and incubated with ALEXA FLUOR® 647 fluorescent dye-conjugated antibody against mouse immunoglobulin G (1:250, Invitrogen) and counterstained with DAPI (4′,6-diamidino-2-phenylindol, Life Technologies) for 1 hour at room temperature. Cells were washed three times with PBS and imaged using a Leica SP8 confocal microscope.

[2] = tested on: endogenous retroelements (EREs); assay: RT-PCR expression of endogenous retroelements (EREs) in BMDMs; format: cell-based, mouse; conditions: wild-type BMDMs, NEI alone
Procedure: RT-PCR Analysis. Total RNA was extracted using TRIZOL® (Thermo Fisher Scientific) and converted into cDNA by using the High-Capacity cDNA Reverse Transcription Kit (Applied Biosystems). Real-time quantitative PCR was performed on an Applied Biosystems 7500 real-time PCR instrument with 2×SYBR™ Green (Applied Biosystems). For ERE expression analysis, 5 μg of total RNA extracted from the cells was dissolved in 46 μl of water and mixed with 3.5 μl NaCl (5 M stock). Then, 0.5 μl RNase A (10 mg/ml stock, Thermo Fisher Scientific) or water (as mock) was added to a total volume of 50 μl and mixed, followed by incubation at room temperature for 10 minutes. Then 1 ml acid-guanidinium-phenol based reagent sold under the tradename TRIZOL® was directly added to the mixture to terminate digestion, and the RNA was extracted. The RNA transcripts of selected endogenous retroelements (EREs) were measured by RT-PCR with GAPDH as an internal control. The ratios of (ERE/GAPDH)RNAase-A/(ERE/GAPDH)mock were calculated as fold enrichment.

ZBP1 = assay: Co-immunoprecipitation of ZBP1 with ADAR1 and RIPK3 in BMDMs; format: cell-based, mouse; conditions: wild-type BMDMs, 12 hours
Procedure: Co-Immunoprecipitation Assay. BMDMs (10×10^6 cells) were seeded into 10-cm dishes and treated with IFN-β or KPT-330 or combination of IFN-β and KPT-330 for 12 hours. Then, the cells were lysed in a buffer containing 20 mM Tris-HCl (pH 7.4), 100 mM NaCl, 30 mM KCl, and 0.1% NP-40. After centrifugation at 16,000 g for 10 minutes, the lysates were incubated with anti-ZBP1 antibody (AdipoGen) with protein A/G PLUS-Agarose (Santa Cruz Biotechnology) for overnight incubation at 4° C. After washing with the above buffer, the immunoprecipitated proteins were harvested by boiling in 1×SDS loading buffer at 100° C. for 5 minutes.

B16-F10 melanoma cells = assay: B16-F10 melanoma model in mice; format: in vivo, mouse; conditions: wild-type mice; KPT-330 15 mg/kg oral, IFN-γ 10 μg or IFN-α/IFN-β 1 μg i.p., days 8, 10 and 13 after implantation
Procedure: Melanoma Model. The mouse melanoma cell line B16-F10 (ATCCR CRL-6322™) was cultured in a humidified, 5% CO2 incubator at 37° C., and grown in Dulbecco's Modified Eagle Medium (DMEM) with 10% FBS and 100 U/mL penicillin/streptomycin. Male and female 6-12-week-old mice were shaved on their lower back and engrafted with B16-F10 melanoma cells by subcutaneously injecting 1×10^6 cells in 200 μL PBS. Tumors were measured with digital calipers, and tumor volume was calculated using the formula: volume=(length×width^2)×½. For treatment with IFN-γ (Peprotech), each mouse was injected interperitoneally with 10 μg of IFN-γ in 100 μl of saline. For treatment with IFN-α or IFN-β, each mouse was injected interperitoneally with 1 μg of IFN-α or IFN-β. For treatment with KPT-330 (Selleckchem), each mouse was orally administered 300 μl of KPT-330 (15 mg/kg) suspended in 0.6% polyoxyalkylene ether sold under the tradename PLURONIC® (Gibco) and 0.6% polyvinylpyrrolidone. The treatment was given on days 8, 10 and 13 after tumor implantation.

Molecule	cell death compared with wild-type cells [1]	cell death (PI staining) [1]	cleavage of caspase-1 and activation of GSDME, caspase-8, -3, -7 and MLKL (BMDMs)	apoptosis: cleavage of caspase-8, -3 and -7 (BMDMs; wild-type BMDMs)	cleavage of GSDME (pyroptosis) (BMDMs; wild-type BMDMs)	phosphorylation of MLKL (necroptosis) (BMDMs; wild-type BMDMs)	amount of dsRNA (endogenous dsRNA)	amount of dsRNA compared with media-treated cells (endogenous dsRNA)	expression of EREs (Mus-D, Line1, ERV-L) [2]	interaction of ZBP1 with ADAR1 (ZBP1)	interaction of ZBP1 with RIPK3 (ZBP1)	melanoma tumor growth / regression (B16-F10 melanoma cells)	expression of ZBP1 / ADAR1 (BMDMs; wild-type BMDMs)
O=C(/C=C\n1cnc(-c2cc(C(F)(F)F)cc(C(F)(F)F)c2)n1)NNc1cnccn1 [KPT-330, selinexor]	increased cell death	low level of cell death	increased cleavage of caspase-1 and activation	induced apoptosis	displayed cleavage of GSDME	low level of phosphorylation of MLKL	An increase in the amount of dsRNA	slightly increased the amounts of dsRNA	slightly upregulated	some interaction	some interaction	reduced melanoma growth	–
CCC(=C/[C@H](C)C/C=C/C(C)=C/[C@@H](C)C(=O)[C@@H](C)[C@H](O)[C@@H](C)C/C(C)=C/C(=O)O)/C=C/[C@@H]1OC(=O)C=C[C@@H]1C [LMB, Leptomycin B]	increased cell death	low level of cell death	increased cleavage of caspase-1 and activation	induced apoptosis	displayed cleavage of GSDME	low level of phosphorylation of MLKL	An increase in the amount of dsRNA	slightly increased the amounts of dsRNA	slightly upregulated	–	–	–	–
B1	–	–	–	–	–	–	–	–	–	robust interaction	–	–	induced ZBP1 expression; also recorded: upregulated
